Laboratory results: patent publication US11219625B2, “Inhibitors of N-linked glycosylation and methods using same” (YALE UNIVERSITY, priority 2015, dated 2022)

Experiments:
[1] = tested on: FGFR1; assay: Western blot of FGFR phosphorylation, H1581 and H2444 cells; format: cell-based; conditions: H1581 and H2444, FIG. 4F
Method: FIGS. 4A-4H illustrate the finding that NGI-1 blocks RTK driven proliferation. FIG. 4A illustrates western blot analysis of EGFR phosphorylation (Y1173) and gel mobility in PC9 (EGFR-mutant) and A549 (k-ras mutant) NSCLC cells after 10 μM NGI-1 treatment for 24 h. […] Actin expression was used as a control for protein loading. FIG. 4B illustrates MTT assays results of PC9 following treatment with 10 μM NGI-1 or 1 μM tunicamycin for a total of 5 d. Relative proliferation id reported in fold increase from day 0. FIG. 4C illustrates MTT assays results of A549 following treatment with 10 μM NGI-1 or 1 μM tunicamycin for a total of 5 d. Relative proliferation id reported in fold increase from day 0. FIG. 4D illustrates protein phosphorylation profiles of PC9 cells analyzed by phospho-protein array to assess the response of PC9 to 10 μM NGI-1 for 24 h. FIG. 4E illustrates protein phosphorylation profiles of A549 cells analyzed by phospho-protein array to assess the response of A549 to 10 μM NGI-1 for 24 h. FIG. 4F illustrates western blot analysis of FGFR phosphorylation (Y653/654) and gel mobility for H1581 (TKI sensitive) and H2444 (TKI insensitive) NSCLC cell lines. […] FIG. 4G illustrates MTT assays for H1581 cells treated with 10 μM NGI-1 for 5 d. Asterisk (***) indicates a significant difference p<0.001 for MTT. FIG. 4H illustrates MTT assays for H2444 cells treated with 10 μM NGI-1 for 5 d. […]

[2] = tested on: cyclin D1; assay: Cyclin D1 expression (qRT-PCR, western blot), A549; format: cell-based, human
Method: (§1) FIGS. 5A-5G illustrate NGI-1 induces G1 arrest and senescence in EGFR addicted tumor cells. FIG. 5A illustrates cell cycle distribution of PC9 cells after 24 h NGI-1 treatment for 24 h determined by flow cytometry. […] FIG. 5B illustrates cell cycle distribution of A549 cells after 24 h NGI-1 treatment for 24 h determined by flow cytometry. FIG. 5C illustrates western blot time course of cyclin D1 expression in PC9 and A549 cells after NGI-1 treatment. FIG. 5D illustrates quantitative real-time PCR analysis of PC9 and A549 cells. A time course of cyclin D1 expression levels relative to GAPDH is represented. […] FIG. 5F illustrates senescence of PC9 cells explored by: cell autofluorescence, measured by flow cytometry using a detector for PE/YFP; lipofuscin accumulation, detected by confocal laser scanning microscopy using an excitation laser of 405 nm with acquired signals from spectrums of yellow 575-620 nm; and morphology changes, enlarged vs. flattened. […] Significance was calculated using a T test (*p<0.05. **p<0.01). FIG. 5G illustrates senescence of A549 cells explored by: cell autofluorescence, measured by flow cytometry using a detector for PE/YFP; lipofuscin accumulation, detected by confocal laser scanning microscopy using an excitation laser of 405 nm with acquired signals from spectrums of yellow 575-620 nm; and morphology changes, enlarged vs. flattened. […]

[3] = tested on: cyclin D1; assay: Cyclin D1 expression (qRT-PCR, western blot), PC9; format: cell-based, human
Method: as §1

`Cc1cnc(NC(=O)c2cc(S(=O)(=O)N(C)C)ccc2N2CCCC2)s1` [NGI-1, 5-(N,N-Dimethylsulfamoyl)-N-(5-methylthiazol-2-yl)-2-(pyrrolidin-1-yl)benzamide] was tested, and the FGFR1 phosphorylation [1] was “blocked FGFR1 phosphorylation”, the “cyclin D1 mRNA and protein levels” value [2] was “not significantly affected” and the “cyclin D1 reduced, protein level” value ([3]; PC9) was 40%. For the same compound, the “cyclin D1 reduced, mRNA level” value ([3]; PC9, p<0.01) was 40%±15%.
